Blank lines part the entries; values can stand above or below the compound they belong to.
Experiments:
[1] = molecular target: Serine/threonine-protein kinase MARK1 (Homo sapiens) (UniProt Q9P0L2); details: at 10 µM
[2] = molecular target: Tyrosine-protein kinase Fgr (Homo sapiens) (UniProt P09769); assay: Selectivity interaction (Ambit KINOMEscan and KiNATiv profiling in Jurkat cells) EUB0000090b FGR; type: cell-based; details: at 1 µM
[3] = molecular target: T1, Dual specificity mitogen-activated protein kinase kinase 5 (Homo sapiens) (UniProt Q13163); assay: Selectivity interaction (Ambit KINOMEscan and KiNATiv profiling in Jurkat cells) EUB0000090b MAP2K5; type: cell-based; details: at 1 µM
T1 sequence (whole entry): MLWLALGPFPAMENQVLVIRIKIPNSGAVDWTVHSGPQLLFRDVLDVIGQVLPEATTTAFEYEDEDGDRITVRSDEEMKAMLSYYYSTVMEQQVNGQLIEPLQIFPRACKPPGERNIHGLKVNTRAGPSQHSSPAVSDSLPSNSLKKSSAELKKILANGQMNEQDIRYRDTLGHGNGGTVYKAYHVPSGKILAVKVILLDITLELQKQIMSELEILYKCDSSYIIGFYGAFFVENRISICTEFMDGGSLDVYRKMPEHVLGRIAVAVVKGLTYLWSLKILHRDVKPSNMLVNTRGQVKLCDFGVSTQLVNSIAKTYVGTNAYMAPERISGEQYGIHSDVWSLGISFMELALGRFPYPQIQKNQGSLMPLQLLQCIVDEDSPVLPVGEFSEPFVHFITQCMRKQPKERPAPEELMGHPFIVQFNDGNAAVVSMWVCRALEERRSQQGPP

[4] = molecular target: Serine/threonine-protein kinase 10 (Homo sapiens) (UniProt O94804); assay: Selectivity interaction (KinomeScan (DiscoverX)) EUB0000618a STK10; details: at 10 µM
Serine/threonine-protein kinase 10 (Homo sapiens), sequence (O94804 whole entry, looked up): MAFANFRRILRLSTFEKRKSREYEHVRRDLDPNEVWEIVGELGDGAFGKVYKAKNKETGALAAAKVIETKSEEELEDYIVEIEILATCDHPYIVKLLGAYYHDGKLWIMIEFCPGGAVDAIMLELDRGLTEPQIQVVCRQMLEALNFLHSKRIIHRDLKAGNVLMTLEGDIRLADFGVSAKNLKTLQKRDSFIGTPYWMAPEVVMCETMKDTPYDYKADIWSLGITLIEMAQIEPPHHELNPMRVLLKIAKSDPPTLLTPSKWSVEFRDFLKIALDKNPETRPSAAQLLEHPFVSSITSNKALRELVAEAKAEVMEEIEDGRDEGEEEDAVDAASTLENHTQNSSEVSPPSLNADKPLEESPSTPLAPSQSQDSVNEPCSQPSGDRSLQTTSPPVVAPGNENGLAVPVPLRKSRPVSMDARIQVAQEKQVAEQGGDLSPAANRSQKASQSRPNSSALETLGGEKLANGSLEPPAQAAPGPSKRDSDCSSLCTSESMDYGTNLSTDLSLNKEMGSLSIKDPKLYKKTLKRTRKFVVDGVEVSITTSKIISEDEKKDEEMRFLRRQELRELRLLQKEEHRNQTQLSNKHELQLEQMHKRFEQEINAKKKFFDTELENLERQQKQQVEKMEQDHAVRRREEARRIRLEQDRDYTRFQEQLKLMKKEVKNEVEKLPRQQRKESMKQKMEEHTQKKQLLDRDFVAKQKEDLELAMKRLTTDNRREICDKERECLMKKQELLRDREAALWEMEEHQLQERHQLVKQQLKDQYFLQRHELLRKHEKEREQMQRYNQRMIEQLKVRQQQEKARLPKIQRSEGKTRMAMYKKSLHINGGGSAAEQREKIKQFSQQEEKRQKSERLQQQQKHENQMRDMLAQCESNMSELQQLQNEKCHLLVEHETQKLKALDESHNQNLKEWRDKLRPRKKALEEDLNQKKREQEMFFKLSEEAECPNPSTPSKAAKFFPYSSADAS

[5] = molecular target: Serine/threonine-protein kinase 32A (Homo sapiens) (UniProt Q8WU08); assay: Selectivity interaction (KinomeScan (DiscoverX)) EUB0001619a STK32A; details: at 1 µM
Serine/threonine-protein kinase 32A (Homo sapiens), sequence (Q8WU08 whole entry): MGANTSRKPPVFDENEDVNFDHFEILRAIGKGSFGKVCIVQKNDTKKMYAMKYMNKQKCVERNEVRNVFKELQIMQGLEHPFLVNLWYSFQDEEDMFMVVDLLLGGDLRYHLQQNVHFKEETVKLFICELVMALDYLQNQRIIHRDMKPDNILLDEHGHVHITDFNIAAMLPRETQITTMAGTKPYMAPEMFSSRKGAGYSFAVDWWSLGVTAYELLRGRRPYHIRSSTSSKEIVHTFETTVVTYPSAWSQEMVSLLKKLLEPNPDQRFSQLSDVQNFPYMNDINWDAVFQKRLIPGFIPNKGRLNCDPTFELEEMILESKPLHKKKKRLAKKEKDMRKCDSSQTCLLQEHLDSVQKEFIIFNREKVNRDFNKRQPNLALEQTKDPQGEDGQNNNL

[6] = molecular target: Calcium/calmodulin-dependent protein kinase type 1 (Homo sapiens) (UniProt Q14012); assay: Selectivity interaction (ActivX KiNativ screen (ex vivo kinase selectivity in human PBMCs)) EUB0001619a CAMK1; type: cell-based; details: PBMC, at 1 µM
Calcium/calmodulin-dependent protein kinase type 1 (Homo sapiens), sequence (Q14012 whole entry, looked up): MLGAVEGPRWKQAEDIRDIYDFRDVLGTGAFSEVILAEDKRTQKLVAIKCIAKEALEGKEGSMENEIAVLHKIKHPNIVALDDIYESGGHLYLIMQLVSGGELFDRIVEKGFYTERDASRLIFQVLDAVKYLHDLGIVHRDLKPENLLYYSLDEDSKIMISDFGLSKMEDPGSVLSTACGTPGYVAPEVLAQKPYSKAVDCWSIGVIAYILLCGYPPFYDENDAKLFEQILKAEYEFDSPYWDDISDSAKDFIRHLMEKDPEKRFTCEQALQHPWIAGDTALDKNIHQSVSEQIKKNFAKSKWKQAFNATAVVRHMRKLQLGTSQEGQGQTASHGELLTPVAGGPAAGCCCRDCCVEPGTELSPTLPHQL

[7] = molecular target: Lethal(3)malignant brain tumor-like protein 1 (Homo sapiens) (UniProt Q9Y468); assay: Selectivity interaction (Transferase panel (protein, RNA, and DNA methyltransferases. and EP300 (acetyltransferase))) EUB0000270b L3MBTL; details: at 1 µM
Lethal(3)malignant brain tumor-like protein 1 (Homo sapiens), sequence (Q9Y468 whole entry): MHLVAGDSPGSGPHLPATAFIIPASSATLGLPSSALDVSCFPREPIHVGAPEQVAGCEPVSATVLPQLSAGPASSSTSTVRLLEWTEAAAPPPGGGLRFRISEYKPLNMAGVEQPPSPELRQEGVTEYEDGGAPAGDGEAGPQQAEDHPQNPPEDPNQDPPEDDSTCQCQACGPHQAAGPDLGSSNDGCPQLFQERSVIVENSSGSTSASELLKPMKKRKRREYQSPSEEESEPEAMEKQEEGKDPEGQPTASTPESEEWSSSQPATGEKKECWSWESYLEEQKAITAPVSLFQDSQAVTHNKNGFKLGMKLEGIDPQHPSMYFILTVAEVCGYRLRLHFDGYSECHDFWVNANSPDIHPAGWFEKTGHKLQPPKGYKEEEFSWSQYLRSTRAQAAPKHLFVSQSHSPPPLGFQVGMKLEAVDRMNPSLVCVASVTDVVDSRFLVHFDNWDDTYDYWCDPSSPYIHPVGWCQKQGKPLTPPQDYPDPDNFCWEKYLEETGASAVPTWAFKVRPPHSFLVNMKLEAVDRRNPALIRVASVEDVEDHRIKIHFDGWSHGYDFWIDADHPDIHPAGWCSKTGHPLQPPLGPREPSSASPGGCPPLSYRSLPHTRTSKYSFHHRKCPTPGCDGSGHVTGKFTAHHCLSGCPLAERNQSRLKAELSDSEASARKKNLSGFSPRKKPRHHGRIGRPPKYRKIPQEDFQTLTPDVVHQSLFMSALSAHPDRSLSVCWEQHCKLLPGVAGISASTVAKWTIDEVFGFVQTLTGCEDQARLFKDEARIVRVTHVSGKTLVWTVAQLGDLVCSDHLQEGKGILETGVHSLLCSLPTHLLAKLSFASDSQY

[8] = molecular target: T2, Cyclin-dependent kinase 11A (Homo sapiens) (UniProt Q9UQ88); assay: Selectivity interaction (KinomeScan (DiscoverX)) EUB0000229b CDK11A; details: at 10 µM
T2 sequence (whole entry): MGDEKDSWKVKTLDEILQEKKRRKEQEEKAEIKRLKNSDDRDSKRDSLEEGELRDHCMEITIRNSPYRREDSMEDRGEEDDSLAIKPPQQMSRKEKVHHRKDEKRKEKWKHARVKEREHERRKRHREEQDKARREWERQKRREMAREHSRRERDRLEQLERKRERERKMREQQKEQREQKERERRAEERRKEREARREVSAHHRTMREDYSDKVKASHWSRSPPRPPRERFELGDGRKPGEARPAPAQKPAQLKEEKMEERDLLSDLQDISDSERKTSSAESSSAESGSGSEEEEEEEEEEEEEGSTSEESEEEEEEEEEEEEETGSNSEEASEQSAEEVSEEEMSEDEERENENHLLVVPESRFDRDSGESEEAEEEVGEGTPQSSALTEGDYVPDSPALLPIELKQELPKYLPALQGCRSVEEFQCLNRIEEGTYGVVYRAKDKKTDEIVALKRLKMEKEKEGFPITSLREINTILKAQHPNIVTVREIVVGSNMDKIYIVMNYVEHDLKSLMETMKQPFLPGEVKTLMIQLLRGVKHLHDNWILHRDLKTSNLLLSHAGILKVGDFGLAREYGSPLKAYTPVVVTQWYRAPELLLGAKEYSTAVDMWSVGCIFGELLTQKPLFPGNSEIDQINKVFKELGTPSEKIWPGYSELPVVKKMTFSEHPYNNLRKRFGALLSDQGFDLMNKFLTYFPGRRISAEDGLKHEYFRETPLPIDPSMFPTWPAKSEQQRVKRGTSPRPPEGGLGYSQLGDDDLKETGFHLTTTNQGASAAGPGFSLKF

SRSF protein kinase 1 = SRSF protein kinase 1 (Homo sapiens, UniProt Q96SB4); assay: Selectivity interaction (KinomeScan (DiscoverX)) EUB0000666a SRPK1; details: at 10 µM
SRSF protein kinase 1, sequence (Q96SB4 whole entry): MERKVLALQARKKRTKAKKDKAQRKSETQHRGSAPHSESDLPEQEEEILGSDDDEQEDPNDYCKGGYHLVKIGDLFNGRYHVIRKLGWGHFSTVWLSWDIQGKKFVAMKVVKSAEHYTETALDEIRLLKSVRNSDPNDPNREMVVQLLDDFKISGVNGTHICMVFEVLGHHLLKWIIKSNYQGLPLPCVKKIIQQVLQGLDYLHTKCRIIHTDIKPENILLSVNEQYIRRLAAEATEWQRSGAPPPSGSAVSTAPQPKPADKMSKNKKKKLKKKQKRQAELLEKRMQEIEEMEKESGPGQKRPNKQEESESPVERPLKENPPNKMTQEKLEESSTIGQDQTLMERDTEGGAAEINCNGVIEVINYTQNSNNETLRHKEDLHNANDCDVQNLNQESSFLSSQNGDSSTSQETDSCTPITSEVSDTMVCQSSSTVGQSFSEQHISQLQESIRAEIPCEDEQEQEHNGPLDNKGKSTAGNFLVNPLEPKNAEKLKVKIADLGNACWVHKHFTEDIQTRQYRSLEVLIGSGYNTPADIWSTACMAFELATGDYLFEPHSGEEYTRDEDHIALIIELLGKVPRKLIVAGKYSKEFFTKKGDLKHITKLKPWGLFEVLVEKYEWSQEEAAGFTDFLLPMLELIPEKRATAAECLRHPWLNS

[9] = molecular target: T3, Bromodomain-containing protein 9 (Homo sapiens, UniProt Q9H8M2); assay: Selectivity interaction (ITC measurement) EUB0000233b BRD9
T3 sequence (Q9H8M2 whole entry): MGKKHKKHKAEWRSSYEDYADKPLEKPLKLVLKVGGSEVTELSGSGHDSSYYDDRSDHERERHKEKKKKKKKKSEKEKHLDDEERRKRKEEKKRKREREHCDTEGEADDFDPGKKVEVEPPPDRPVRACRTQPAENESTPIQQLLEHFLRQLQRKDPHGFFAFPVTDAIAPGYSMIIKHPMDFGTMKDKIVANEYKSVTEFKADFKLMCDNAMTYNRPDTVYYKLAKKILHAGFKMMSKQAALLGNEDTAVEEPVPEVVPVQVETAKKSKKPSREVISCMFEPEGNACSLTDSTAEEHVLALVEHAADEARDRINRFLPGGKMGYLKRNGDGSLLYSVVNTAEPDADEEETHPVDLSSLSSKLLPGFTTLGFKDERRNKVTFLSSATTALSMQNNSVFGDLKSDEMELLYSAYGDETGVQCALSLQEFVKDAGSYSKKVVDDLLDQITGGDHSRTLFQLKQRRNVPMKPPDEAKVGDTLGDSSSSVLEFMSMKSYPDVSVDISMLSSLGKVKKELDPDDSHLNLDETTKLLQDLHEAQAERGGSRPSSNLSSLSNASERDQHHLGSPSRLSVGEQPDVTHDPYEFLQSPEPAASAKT

Serine/threonine-protein kinase MARK1 (Homo sapiens), sequence (Q9P0L2 whole entry, looked up): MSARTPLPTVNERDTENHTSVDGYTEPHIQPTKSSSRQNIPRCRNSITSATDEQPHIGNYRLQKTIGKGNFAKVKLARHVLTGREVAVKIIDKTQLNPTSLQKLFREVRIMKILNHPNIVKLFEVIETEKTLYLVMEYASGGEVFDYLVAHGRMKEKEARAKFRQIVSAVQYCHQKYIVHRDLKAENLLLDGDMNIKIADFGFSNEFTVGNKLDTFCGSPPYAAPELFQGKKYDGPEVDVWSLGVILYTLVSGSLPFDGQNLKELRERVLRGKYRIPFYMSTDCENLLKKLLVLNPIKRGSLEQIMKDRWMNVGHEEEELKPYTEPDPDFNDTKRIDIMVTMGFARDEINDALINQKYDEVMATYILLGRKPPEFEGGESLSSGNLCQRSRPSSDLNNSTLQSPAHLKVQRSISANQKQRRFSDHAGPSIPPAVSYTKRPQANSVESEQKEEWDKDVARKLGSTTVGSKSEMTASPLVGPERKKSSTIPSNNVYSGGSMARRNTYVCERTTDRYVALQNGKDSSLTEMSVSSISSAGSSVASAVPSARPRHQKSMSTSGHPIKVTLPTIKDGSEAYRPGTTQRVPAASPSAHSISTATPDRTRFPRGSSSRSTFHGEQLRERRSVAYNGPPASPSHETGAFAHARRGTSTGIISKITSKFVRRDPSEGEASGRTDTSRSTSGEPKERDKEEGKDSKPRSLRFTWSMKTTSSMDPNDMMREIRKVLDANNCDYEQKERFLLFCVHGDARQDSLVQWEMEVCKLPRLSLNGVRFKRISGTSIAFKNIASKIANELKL
Tyrosine-protein kinase Fgr (Homo sapiens), sequence (P09769 2-529 limits assumed): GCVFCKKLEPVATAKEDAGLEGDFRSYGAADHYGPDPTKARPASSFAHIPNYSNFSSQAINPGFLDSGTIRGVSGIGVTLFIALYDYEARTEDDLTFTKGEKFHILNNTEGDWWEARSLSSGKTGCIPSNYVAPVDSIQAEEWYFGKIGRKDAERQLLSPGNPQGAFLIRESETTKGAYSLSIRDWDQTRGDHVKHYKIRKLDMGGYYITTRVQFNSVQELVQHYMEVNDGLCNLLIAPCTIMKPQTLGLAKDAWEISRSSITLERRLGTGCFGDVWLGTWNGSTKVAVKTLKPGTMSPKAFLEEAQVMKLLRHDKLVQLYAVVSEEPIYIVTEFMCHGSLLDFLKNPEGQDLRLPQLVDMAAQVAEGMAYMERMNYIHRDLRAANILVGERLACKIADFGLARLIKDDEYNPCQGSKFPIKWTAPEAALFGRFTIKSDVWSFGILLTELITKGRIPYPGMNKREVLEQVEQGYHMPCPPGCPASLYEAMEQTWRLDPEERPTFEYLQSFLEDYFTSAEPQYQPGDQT

% of control [1]: 100%
SMILES: CCN(CC)CCCCNc1ncc2cc(-c3cc(OC)cc(OC)c3)c(NC(=O)NC(C)(C)C)nc2n1

SMILES: CN(C)C/C=C/C(=O)Nc1ccc(C(=O)N2CCCC(Nc3ncc(Cl)c(-c4c[nH]c5ccccc45)n3)C2)cc1 (stereo not given)
% of control [2]: 92% | % of control [3]: 97%

SMILES: O[C@H]1CC[C@H](Nc2ncc3nc(Nc4c(F)cc(F)cc4F)n([C@H]4CCOC4)c3n2)CC1
% of control [4]: 97%

SMILES: N#Cc1cccc(-c2c[nH]c3ncnc(N4CCOCC4)c23)c1
% of control [5]: 100% | % of inhibition [6]: 2%

SMILES: Cc1cc(CN)cc(C)c1-c1ncn(C)c1-c1cncn1C
% activity [7]: > 90%

SMILES: COc1cc(N(C)c2ccnc3ccc(C(F)(F)F)cc23)cc(OC)c1OC
% binding [8]: 97%

SMILES: O=C(NOC[C@H](O)CO)c1ccc(F)c(F)c1Nc1ccc(I)cc1F
% of control (SRSF protein kinase 1): 100%

Kd [9]: 1100 nM
SMILES: CN(C)CCCOc1ccc(-c2cc(NCCCn3cccn3)nc(S(C)(=O)=O)n2)cc1
